According to patent publication US20250170143A1, “METHODS OF TREATING OCULAR FIBROTIC PATHOLOGIES” (Mayo Foundation for Medical Education and Research, priority 2022, published 2025):
Like-named read-outs stand apart in the source and are kept apart here.

What was measured:
ARPE-19 cells [1] = test: Fibronectin deposition assay in TGFβ-stimulated ARPE-19 cells; assay type: cell-based, human; conditions: for IC50: ARPE-19 cells stimulated with TGFβ, incubated 96 hours
Procedure: ARPE-19 cells were plated into 96-well plates (10,000 cells/well) and allowed to attach. Media was removed and replaced with the media specified in the “Cell Culture” section above, without FBS. Cells were treated for four days±TGFβ (10 ng/mL) and 10 μM loxapine. Cells were fixed with 10% neutral buffered formalin (Sigma-Aldrich) for 15 minutes. Cells were permeabilized with 0.25% Triton X-100 (Sigma-Aldrich) and blocked with 1% BSA for 1 hour. Cells were incubated with mouse monoclonal IgG3 primary antibodies against fibronectin (Santa Cruz Biotechnology), which were diluted 1:400 in 0.25% Triton X-100 (Sigma-Aldrich) with 1% BSA. Cells were incubated with primary antibodies either in 4° C. overnight or at room temperature for 2 hours. Cells were washed with PBS (Gibco), then incubated for 1 hour with Alexa Fluor® 488 donkey anti-mouse IgG (H+L) secondary antibodies (Life Technologies) and DAPI (Thermo Fisher Scientific), which were each diluted 1:1000 in 0.25% Triton X-100 (Sigma-Aldrich) with 1% BSA. Cells were washed again with PBS (Gibco). Immunofluorescence was measured using a Cytation 5 imaging reader (BioTek).
The compounds of this Example were tested using the fibronectin deposition assay described in Example 1. In brief, ARPE-19 cells were stimulated with TGFβ+/−the indicated concentration of each compound. Incubated 96 hours Fixed and immunostained for fibronectin.
In brief, ARPE-19 cells were stimulated with TGFβ+/−the indicated concentration of each compound. Incubated 96 hours, fixed and immunostained for fibronectin.

[2] = system: profibrotic gene expression (COL1A1, ACTA2, FN1) in ARPE-19 cells; test: Profibrotic gene expression by qPCR in ARPE-19 cells treated ±TGFβ; assay type: cell-based, human; conditions: ARPE-19 + TGFβ (10 ng/mL), 24 hours; antagonists 10 μM, pramipexole 1 μM; compared to TGFβ only
Procedure: ARPE-19 cells were plated into 12 well plates (100,000 cells/well) and allowed to attach. Media was removed and replaced with the media specified in the “Cell Culture” section above, minus FBS. Cells were treated for 24 hours±TGFβ (10 ng/mL), 1 μM pramipexole, and 10 μM loxapine. RNA was isolated using the RNeasy Plus Mini Kit (Qiagen) and the manufacturer's protocol. Isolated RNA was converted to cDNA using the SuperScript VILO cDNA Synthesis Kit (Invitrogen) and the PTC-200 Peltier Thermal Cycler (MJ Research). Quantitative PCR (qPCR) was performed using FastStart Essential DNA Green Master (Roche) and LightCycler 96 (Roche).
After identifying the preferential expression of DRD2 in ARPE-19 cells, the regulatory effects of these receptors on fibrotic activation were elucidated. As to D2 dopamine receptor (FIG. 2A-B), RNA isolation and qPCR were used to measure the transcript levels of fibrotic markers in ARPE-19 cells treated±TGFβ, pramipexole (D2 agonist), and loxapine (D2 antagonist). […] In experiments combining pramipexole and loxapine along with TGFβ negates the activity of the molecules alone, confirming their activity is being driven by their interaction with the D2 receptor (FIG. 2B).
The effect of solnitropine, solupine, and loxapine on the expression of profibrotic genes COL1A1 and FN1 were evaluated as described in Example 1 (FIGS. 7A and 7B). In brief, ARPE-19 cells were treated±TGFβ in the presence of either loxapine, solnitropine, or solupine. Gene expression was measured by qPCR on RNA isolated from the treated cells 24 h after treatment.

ARPE-19 cells [3] = test: Solupine functional stability (stored saline stock vs fresh, FGF-β proliferation readout); assay type: cell-based, human; conditions: dissolved in saline, opaque sealed container, 4° C.; potency compared with fresh stock in FGF-β proliferation
Procedure: A powder stock of solupine was dissolved in saline and stored in an opaque, sealed container at 4° C. for 90 days. The potency and efficacy of this stored stock was then compared to freshly solubilized stock of solupine dissolved in saline. ARPE-19 cells were cultured for 4 days with FGF-β and the indicated concentration of fresh or 90-day-old solupine stock. Cells were then assayed for proliferation as described herein for FIGS. 10 and 11. N=3. Results: solupine stock is functionally stable for at least 90 days under these conditions.

ARPE-19 cells [4] = test: PDGF-CC stimulated proliferation; assay type: cell-based, human; conditions: ARPE-19, 10 ng/mL PDGF-CC; compared with methotrexate
Procedure: Effect of methotrexate, solupine, sertindole, penfluridol, pimozide, and fluspirilene, on FGF-β stimulated proliferation was determined. Methods: ARPE-19 cells were seeded into 96-well plates (1,000 cells/well) and incubated for 6 h at 37° C. After, media was removed and exchanged for media containing 0% fetal bovine serum+/−10 ng/mL FGF-β, and the indicated concentration of compound. Compound concentrations were selected based on the potencies observed in FIGS. 4A-6B, and 9A-9C. After the indicated number of hours, cells were fixed in 4% formalin, and DAPI stained. Cells were then imaged using an automated microscope (Biotek Cytation5) and the number of DAPI nuclei were quantified using onboard software (Gen5). Raw cells/field of view are plotted. N=3. […] FGF-β levels are elevated in patients with PVR.
Effect of methotrexate and solupine on PDGF-CC stimulated proliferation was determined. Methods: experiments were carried out as described in Example 6, except 10 ng/mL PDGF-CC was used to stimulate proliferation. […] PDGF-CC levels are elevated in patients with PVR.

[5] = system: Human conjunctival fibroblasts; test: Fibronectin deposition by conjunctival fibroblasts; assay type: cell-based; conditions: conditions of FIGS. 4-6, indicated concentrations of solupine
Procedure: Human conjunctival fibroblasts were cultured under the same conditions described in FIGS. 4-6 and fibronectin deposition was measured after treating with the indicated concentrations of solupine. N=3.

ARPE-19 cells [6] = test: Fibronectin deposition in ARPE-19 cells stimulated with a cocktail of profibrotic ligands; assay type: cell-based, human; conditions: TGF-β1, TGF-β2, TNF-α, FGF-β, PDGF-CC all at 10 ng/mL, 10 μM solupine
Procedure: ARPE-19 cells were cultured as described in FIGS. 4-6 and fibronectin was measured after stimulating the cells with a combination of profibrotic soluble factors including: T1=TGF-β1, T2=TGF-β2, Tα=TNF-α, Fβ=FGF-β, PC=PDGF-CC, (all at 10 ng/mL). +/−10 μM solupine. N=3. Results: solupine maintains its efficacy at blocking RPE cell fibronectin deposition when profibrotic factors are combined in a cocktail.

mouse eye = test: Toxicology scoring of mouse eye injected with solupine; assay type: in vivo; conditions: mice, 14 days
Procedure: Mice were injected with 1 μL of PBS (FIG. 17A), 1 μL PBS containing 10 μg/0.05 mL solupine (FIG. 17B), or 1 μL PBS containing 30 μg/0.05 mL solupine (FIG. 17C). The eyes were then analyzed by a pathologist and scored for the indicated observations of ocular toxicities. over the course of 14 days. Work was performed under contract with Labcorp. N=3-6 mice/group.

[7] = fibronectin deposition, read-out: IC50
[8] = Homo sapiens, fibronectin deposition, read-out: IC50
[9] = Homo sapiens, read-out: IC50 values (fibronectin deposition)

Structure (SMILES) | IC50 (ARPE-19 cells [1]; [8]) [µM] | also measured
CN1CCN(C2=Nc3cc(O)ccc3Oc3ccc(Cl)cc32)CC1 [8-OH-loxapine] |  | IC50 (ARPE-19 cells [1]; [7]): > 10 µM
Clc1ccc2c(c1)N=C(N1CCNCC1)c1ccccc1N2 [N-desmethyl clozapine] |  | IC50 (ARPE-19 cells [1]; [7]): ≤ 5 µM
Cc1cc2c(s1)Nc1ccccc1N=C2N1CCNCC1 [N-desmethyl olanzapine] |  | IC50 (ARPE-19 cells [1]; [7]): ≤ 5 µM
O=C1CCc2ccc(OCCCCN3CCN(c4cccc(Cl)c4Cl)CC3)cc2N1 [aripiprazole] |  | fibronectin deposition (ARPE-19 cells [1]; ARPE-19, TGFβ, performed identically to FIGS. 4-6, N=3): blocks fibronectin deposition
CN(Cc1cnc2nc(N)nc(N)c2n1)c1ccc(C(=O)N[C@@H](CCC(=O)O)C(=O)O)cc1 [methotrexate] | > 10 | 
OCCN1CCN(CCCN2c3ccccc3Sc3ccc(Cl)cc32)CC1 [perphenazine] | > 10 | 
CCN1CCC[C@H]1CNC(=O)c1c(O)c(Cl)cc(Cl)c1OC [raclopride] | > 10 | 
CCN1CCC[C@H]1CNC(=O)c1c(OC)ccc(Br)c1OC [remoxipride] | > 10 | 
c1ccc2c(c1)Oc1sccc1N=C2N1CCNCC1 [solupine] | ≤ 5 | expression of COL1A1 [2]: significantly reduced; expression of FN1 [2]: significantly reduced; functional stability of stock (ARPE-19 cells [3]): at least 90 days; potency at blocking PDGF stimulated proliferation (ARPE-19 cells [4]): more potent than methotrexate; fibronectin deposition by conjunctival fibroblasts [5]: does not block fibronectin deposition; fibronectin deposition, cocktail of profibrotic ligands (ARPE-19 cells [6]): blocks fibronectin deposition; IC50 (ARPE-19 cells [1]; [9]): ≤ 5 µM; ocular toxicity scoring (mouse eye; eye injection 1 μL PBS containing 10 μg/0.05 mL solupine): No observable toxicity; ocular toxicity scoring (mouse eye; eye injection 1 μL PBS containing 30 μg/0.05 mL solupine): No observable toxicity
CCN1CCCC1CNC(=O)c1cc(S(N)(=O)=O)ccc1OC (stereo not shown) [sulpiride] | > 10 | 
CN1CCN(CCCN2c3ccccc3Sc3ccc(C(F)(F)F)cc32)CC1 [trifluoperizine] |  | IC50 (ARPE-19 cells [1]; [7]): > 10 µM

The next lines start with results.

IC50 (ARPE-19 cells [1]; [8]) [µM] | Structure (SMILES) | also measured
> 10 | CCN1CCCC1CNC(=O)c1cc(S(=O)(=O)CC)c(N)cc1OC (stereo not shown) [amisulpride] | 
≤ 5 | O=C(CCCN1CCC(n2c(O)nc3ccccc32)CC1)c1ccc(F)cc1 [benperidol] | 
5 to 10 | CCN1CCN(c2cc(-c3ccc(F)cc3)c3c(n2)CCCCCC3)CC1 [blonanserin] | 
5 to 10 | O=C(CCCN1CC=C(n2c(=O)[nH]c3ccccc32)CC1)c1ccc(F)cc1 [droperidol] | 
> 10 | CCc1cc(Cl)c(OC)c(C(=O)NC[C@@H]2CCCN2CC)c1O [eticlopride] | 
≤ 5 | O=C1NCN(c2ccccc2)C12CCN(CCCC(c1ccc(F)cc1)c1ccc(F)cc1)CC2 [fluspirilene] | 
≤ 5 | CN1CCN(C2=Nc3ccccc3Oc3ccc(Cl)cc32)CC1 [loxapine] | 
≤ 5 | O=C1[C@@H]2[C@H]3CC[C@H](C3)[C@@H]2C(=O)N1C[C@@H]1CCCC[C@H]1CN1CCN(c2nsc3ccccc23)CC1 [lurasidone] | 
≤ 5 | OC1(c2ccc(Cl)c(C(F)(F)F)c2)CCN(CCCC(c2ccc(F)cc2)c2ccc(F)cc2)CC1 [penfluridol] | 
≤ 5 | O=c1[nH]c2ccccc2n1C1CCN(CCCC(c2ccc(F)cc2)c2ccc(F)cc2)CC1 [pimozide] | 
≤ 5 | CN1CCC(=C2c3ccccc3CCc3sccc32)CC1 [pizotifen] | 
≤ 5 | O=C1NCCN1CCN1CCC(c2cn(-c3ccc(F)cc3)c3ccc(Cl)cc23)CC1 [sertindole] | 
≤ 5 | c1ccc2c(c1)Oc1cccnc1N=C2N1CCNCC1 [solnitropine] | expression of COL1A1 [2]: significantly reduced; expression of FN1 [2]: significantly reduced; IC50 (ARPE-19 cells [1]; [9]): ≤ 5 µM
≤ 5 | O=C(CCCN1CCC(n2c(=S)[nH]c3ccccc32)CC1)c1ccc(F)cc1 [timiperone] | 
